Assay results: article PMC5901961 (Nature, 2017)

What was measured:
Assay in all cases: inside-out patch clamp, HEK293, macroscopic current at +[…] mV, Hill fit
Assay type in all cases: cell-based
mouse TRPM4 [1] = molecular target: mouse TRPM4 (Mus musculus, UniProt Q7TN37)
mouse TRPM4 [2] = molecular target: mouse TRPM4 (Mus musculus, UniProt Q7TN37, H160A)
mouse TRPM4 [3] = molecular target: mouse TRPM4 (Mus musculus, UniProt Q7TN37, Y228A)
mouse TRPM4 [4] = molecular target: mouse TRPM4 (Mus musculus, UniProt Q7TN37, W214A)
Chain of mouse TRPM4 (Mus musculus, UniProt Q7TN37, W214A) (Q7TN37 whole entry W214A): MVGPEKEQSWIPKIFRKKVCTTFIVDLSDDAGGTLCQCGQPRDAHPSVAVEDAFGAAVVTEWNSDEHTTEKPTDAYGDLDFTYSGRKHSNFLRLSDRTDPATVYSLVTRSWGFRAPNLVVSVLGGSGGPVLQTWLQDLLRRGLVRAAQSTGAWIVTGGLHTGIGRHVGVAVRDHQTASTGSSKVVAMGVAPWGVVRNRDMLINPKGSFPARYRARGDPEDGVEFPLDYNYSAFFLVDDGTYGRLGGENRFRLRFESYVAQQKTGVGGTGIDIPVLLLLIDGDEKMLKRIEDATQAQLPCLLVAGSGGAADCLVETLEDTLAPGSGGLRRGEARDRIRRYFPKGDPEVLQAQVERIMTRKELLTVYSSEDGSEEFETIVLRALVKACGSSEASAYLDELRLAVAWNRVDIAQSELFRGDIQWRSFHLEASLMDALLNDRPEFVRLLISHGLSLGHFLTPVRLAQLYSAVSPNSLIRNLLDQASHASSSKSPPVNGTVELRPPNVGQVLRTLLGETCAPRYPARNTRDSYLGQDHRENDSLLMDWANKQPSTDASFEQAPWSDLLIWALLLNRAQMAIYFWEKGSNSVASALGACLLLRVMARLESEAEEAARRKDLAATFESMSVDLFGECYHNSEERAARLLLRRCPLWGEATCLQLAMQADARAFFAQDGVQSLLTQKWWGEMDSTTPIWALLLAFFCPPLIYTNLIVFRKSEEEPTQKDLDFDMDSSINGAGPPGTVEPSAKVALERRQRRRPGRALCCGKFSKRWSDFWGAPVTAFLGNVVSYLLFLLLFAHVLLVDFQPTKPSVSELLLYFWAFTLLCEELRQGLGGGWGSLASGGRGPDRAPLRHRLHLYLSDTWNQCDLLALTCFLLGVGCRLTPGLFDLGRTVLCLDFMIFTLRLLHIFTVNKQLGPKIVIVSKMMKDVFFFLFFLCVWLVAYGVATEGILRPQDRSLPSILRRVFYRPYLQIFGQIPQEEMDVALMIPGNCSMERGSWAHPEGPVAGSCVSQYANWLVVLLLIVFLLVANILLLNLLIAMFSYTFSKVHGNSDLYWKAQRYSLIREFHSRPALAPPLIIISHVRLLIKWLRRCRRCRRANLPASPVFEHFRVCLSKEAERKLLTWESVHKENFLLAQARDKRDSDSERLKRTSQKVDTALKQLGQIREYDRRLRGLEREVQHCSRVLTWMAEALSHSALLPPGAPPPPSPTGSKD

Chain of mouse TRPM4 (Mus musculus, UniProt Q7TN37, H160A) (Q7TN37 whole entry H160A): as the sequence (Q7TN37 whole entry W214A) above, with H160A, A214W counted along it
Chain of mouse TRPM4 (Mus musculus, UniProt Q7TN37) (Q7TN37 whole entry): as the sequence (Q7TN37 whole entry W214A) above, with A214W counted along it
Chain of mouse TRPM4 (Mus musculus, UniProt Q7TN37, Y228A) (Q7TN37 whole entry Y228A): as the sequence (Q7TN37 whole entry W214A) above, with A214W, Y228A counted along it

For Nc1ncnc2c1ncn2[C@@H]1O[C@H](COP(=O)(O)OP(=O)(O)OP(=O)(O)O)[C@@H](O)[C@H]1O [ATP], the IC50 (mouse TRPM4 [1]) was 2.3 ± 0.5 µM, the IC50 (mouse TRPM4 [2]) was greater than 160 µM and the IC50 (mouse TRPM4 [3]) was 14.2 ± 0.7 µM. For the same compound, the IC50 (mouse TRPM4 [4]) was 6.5 ± 0.8 µM.
